From ChEMBL document CHEMBL1201862, “PubChem BioAssay data set” (2004)
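How tested: cells in 96-well plates exposed to compound for 48 hours at five concentrations. GI50 is the concentration that inhibits growth by half.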 Calls of active or inactive are those of the source. Cut-off read from the data, not from the text of the source: active = GI50 up to about 1.1 µM and inactive = higher.

Legend:
Experiment in all cases: NCI tumour cell line growth inhibition, 48 h
CCRF-CEM = system: CCRF-CEM
SW-620 = system: SW-620
SNB-19 = system: SNB-19
A549 = system: A549
SN12C = system: SN12C
UO-31 = system: UO-31
NCI-H23 = system: NCI-H23
MDA-N = system: MDA-N
MOLT-4 = system: MOLT-4
NCI-H226 = system: NCI-H226
786-0 = system: 786-0
HCT-15 = system: HCT-15
HT-29 = system: HT-29
DU-145 = system: DU-145
A498 = system: A498
UACC-62 = system: UACC-62
SNB-75 = system: SNB-75
NCI-H522 = system: NCI-H522
Hs-578T = system: Hs-578T
RXF 393 = system: RXF 393

| Structure (SMILES) | GI50 (CCRF-CEM) | GI50 (SW-620) | GI50 (SNB-19) | GI50 (A549) | GI50 (SN12C) | GI50 (UO-31) | GI50 (NCI-H23) | GI50 (MDA-N) | GI50 (MOLT-4) | GI50 (NCI-H226) | GI50 (786-0) | GI50 (HCT-15) [µM] | GI50 (HT-29) | GI50 (DU-145) | GI50 (A498) | GI50 (UACC-62) | GI50 (SNB-75) | GI50 (NCI-H522) | GI50 (Hs-578T) | GI50 (RXF 393) |
| --- | --- | --- | --- | --- | --- | --- | --- | --- | --- | --- | --- | --- | --- | --- | --- | --- | --- | --- | --- | --- |
| CCOC(=O)c1[nH]c2cccc3c2c1CC(Br)C3=O (stereo not drawn) | 3.83 µM (inactive) | 2.34 µM (inactive) | 15.7 µM (inactive) | 17.3 µM (inactive) | 16.7 µM (inactive) | 6.21 µM (inactive) | 17.6 µM (inactive) | 11.6 µM (inactive) | 2.71 µM (inactive) | 17.4 µM (inactive) | 4.72 µM (inactive) | 3.72 | 20 µM (inactive) | 16.1 µM (inactive) | 17.7 µM (inactive) |  |  |  |  |  |
| Cc1csc2nc3[nH]ncc3c(=O)n12 | > 100 µM (inactive) | > 100 µM (inactive) | > 100 µM (inactive) | > 100 µM (inactive) | > 100 µM (inactive) | 81.8 µM (inactive) | > 100 µM (inactive) | > 100 µM (inactive) | > 100 µM (inactive) | 40.6 µM (inactive) | > 100 µM (inactive) | > 100 | > 100 µM (inactive) |  |  | > 100 µM (inactive) | 61 µM (inactive) | > 100 µM (inactive) | 28.4 µM (inactive) |  |
| N#CC1=C(O)NC(O)=C(C#N)C1c1ccc(C2C(C#N)=C(O)NC(O)=C2C#N)cc1 | 45.3 µM (inactive) | > 100 µM (inactive) | > 100 µM (inactive) | 58.9 µM (inactive) | 46.5 µM (inactive) | > 100 µM (inactive) | > 100 µM (inactive) |  | 94.6 µM (inactive) | > 100 µM (inactive) | > 100 µM (inactive) | 50.8 | > 100 µM (inactive) |  | > 100 µM (inactive) | > 100 µM (inactive) | > 100 µM (inactive) | 19.7 µM (inactive) |  | > 100 µM (inactive) |
| CC1=C(N2CC2)C(=O)c2nc3n(c2C1=O)CCC3O (stereo not drawn) | 1.36 µM (inactive) | 0.153 µM (active) | 0.269 µM (active) | 0.215 µM (active) | 0.508 µM (active) | 0.388 µM (active) | 0.104 µM (active) |  | 0.912 µM (active) | 0.697 µM (active) | 0.179 µM (active) | 13.6 | 0.973 µM (active) | 0.0111 µM (active) | 0.205 µM (active) | 0.168 µM (active) | 0.485 µM (active) | 0.145 µM (active) | 0.0239 µM (active) | 0.187 µM (active) |
